Assay results as given in ChEMBL document CHEMBL3751696, “Mollisolactones A and B, novel dinormonoterpenes from the soft coral Sinularia mollis” (2016).
≈ marks a conversion by molar mass, not a printed value. Calls of active or inactive are those of the source. The calls are words filed in the database; no cut-off is given here.

Key:
Human betaherpesvirus 5 = experiment: Antiviral activity against Human cytomegalovirus at 50 ug/ml; format: functional, organism-based
A549 = experiment: Cytotoxicity against human A549 cells by MTT assay; format: functional; conditions: read-out: ED50 (the source's name)
P388 = experiment: Cytotoxicity against mouse P388 cells by MTT assay; format: functional; conditions: read-out: ED50 (the source's name)
HT-29 = experiment: Cytotoxicity against human HT-29 cells by MTT assay; format: functional; conditions: read-out: ED50 (the source's name)

| SMILES | Activity (Human betaherpesvirus 5) | EC50 (A549) | EC50 (P388) | EC50 (HT-29) |
| --- | --- | --- | --- | --- |
| CC(=O)CC1OC(=O)C=C1C (stereo not drawn) | inactive | 53 µg/mL (≈ 344 µM) | 56 µg/mL (≈ 363 µM) | 51 µg/mL (≈ 331 µM) |
| CC(=O)CC1C=C(C)C(=O)O1 (stereo not drawn) | inactive | 56 µg/mL (≈ 363 µM) | 52 µg/mL (≈ 337 µM) | 58 µg/mL (≈ 376 µM) |
